Measurements reported in ChEMBL document CHEMBL3870309, “Identification of new potent phthalazine derivatives with VEGFR-2 and EGFR kinase inhibitory activity” (Eur J Med Chem, 2016).
pIC50: −log10 of the molar value.

Columns and labels:
[1] = cells; conditions: Homo sapiens, HeLa, 72 h
Description: Antiproliferative activity against human HeLa cells after 72 hrs by Sulforhodamine B-stain assay

[2] = target: Vascular endothelial growth factor receptor 2 (Homo sapiens, UniProt P35968); test: Inhibition of VEGFR-2 (unknown origin) using poly (Glu, Tyr) 4:1 as substrate after 1 hr by ELISA
[3] = target: Epidermal growth factor receptor (Homo sapiens, UniProt P00533); test: Inhibition of EGFR (unknown origin) using poly (Glu, Tyr) 4:1 as substrate after 1 hr by ELISA
Chain of Epidermal growth factor receptor (P00533 whole entry): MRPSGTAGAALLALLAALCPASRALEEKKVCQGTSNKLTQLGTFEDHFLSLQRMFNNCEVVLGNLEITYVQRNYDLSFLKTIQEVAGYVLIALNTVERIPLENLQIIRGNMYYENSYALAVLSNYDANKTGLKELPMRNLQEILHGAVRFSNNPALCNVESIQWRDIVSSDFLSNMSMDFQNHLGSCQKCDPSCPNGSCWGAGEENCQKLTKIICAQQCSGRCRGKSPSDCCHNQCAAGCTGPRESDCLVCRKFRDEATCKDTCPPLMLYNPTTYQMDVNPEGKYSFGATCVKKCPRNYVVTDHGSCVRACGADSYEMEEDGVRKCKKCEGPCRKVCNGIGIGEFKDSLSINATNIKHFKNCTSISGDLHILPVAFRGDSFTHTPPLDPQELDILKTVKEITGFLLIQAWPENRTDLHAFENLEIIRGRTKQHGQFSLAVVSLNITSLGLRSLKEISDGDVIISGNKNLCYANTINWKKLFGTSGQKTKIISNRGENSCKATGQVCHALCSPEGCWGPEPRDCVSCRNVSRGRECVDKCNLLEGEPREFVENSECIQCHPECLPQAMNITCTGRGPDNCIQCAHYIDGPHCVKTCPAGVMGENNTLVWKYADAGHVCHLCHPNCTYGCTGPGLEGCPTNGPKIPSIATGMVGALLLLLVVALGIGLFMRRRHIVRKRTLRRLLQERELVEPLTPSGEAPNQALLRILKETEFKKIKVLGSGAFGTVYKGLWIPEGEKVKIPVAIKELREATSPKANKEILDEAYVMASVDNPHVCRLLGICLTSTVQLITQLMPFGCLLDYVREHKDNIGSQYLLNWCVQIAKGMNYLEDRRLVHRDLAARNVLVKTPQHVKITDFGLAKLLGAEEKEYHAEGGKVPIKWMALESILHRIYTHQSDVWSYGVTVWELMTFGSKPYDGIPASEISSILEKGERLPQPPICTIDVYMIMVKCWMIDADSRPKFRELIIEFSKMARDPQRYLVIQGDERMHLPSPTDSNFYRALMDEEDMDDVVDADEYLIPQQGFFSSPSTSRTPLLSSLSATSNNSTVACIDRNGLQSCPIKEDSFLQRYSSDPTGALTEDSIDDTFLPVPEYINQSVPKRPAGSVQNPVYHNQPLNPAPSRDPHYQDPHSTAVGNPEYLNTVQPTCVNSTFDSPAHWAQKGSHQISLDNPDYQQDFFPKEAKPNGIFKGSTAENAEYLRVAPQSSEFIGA

Chain of Vascular endothelial growth factor receptor 2 (P35968 whole entry): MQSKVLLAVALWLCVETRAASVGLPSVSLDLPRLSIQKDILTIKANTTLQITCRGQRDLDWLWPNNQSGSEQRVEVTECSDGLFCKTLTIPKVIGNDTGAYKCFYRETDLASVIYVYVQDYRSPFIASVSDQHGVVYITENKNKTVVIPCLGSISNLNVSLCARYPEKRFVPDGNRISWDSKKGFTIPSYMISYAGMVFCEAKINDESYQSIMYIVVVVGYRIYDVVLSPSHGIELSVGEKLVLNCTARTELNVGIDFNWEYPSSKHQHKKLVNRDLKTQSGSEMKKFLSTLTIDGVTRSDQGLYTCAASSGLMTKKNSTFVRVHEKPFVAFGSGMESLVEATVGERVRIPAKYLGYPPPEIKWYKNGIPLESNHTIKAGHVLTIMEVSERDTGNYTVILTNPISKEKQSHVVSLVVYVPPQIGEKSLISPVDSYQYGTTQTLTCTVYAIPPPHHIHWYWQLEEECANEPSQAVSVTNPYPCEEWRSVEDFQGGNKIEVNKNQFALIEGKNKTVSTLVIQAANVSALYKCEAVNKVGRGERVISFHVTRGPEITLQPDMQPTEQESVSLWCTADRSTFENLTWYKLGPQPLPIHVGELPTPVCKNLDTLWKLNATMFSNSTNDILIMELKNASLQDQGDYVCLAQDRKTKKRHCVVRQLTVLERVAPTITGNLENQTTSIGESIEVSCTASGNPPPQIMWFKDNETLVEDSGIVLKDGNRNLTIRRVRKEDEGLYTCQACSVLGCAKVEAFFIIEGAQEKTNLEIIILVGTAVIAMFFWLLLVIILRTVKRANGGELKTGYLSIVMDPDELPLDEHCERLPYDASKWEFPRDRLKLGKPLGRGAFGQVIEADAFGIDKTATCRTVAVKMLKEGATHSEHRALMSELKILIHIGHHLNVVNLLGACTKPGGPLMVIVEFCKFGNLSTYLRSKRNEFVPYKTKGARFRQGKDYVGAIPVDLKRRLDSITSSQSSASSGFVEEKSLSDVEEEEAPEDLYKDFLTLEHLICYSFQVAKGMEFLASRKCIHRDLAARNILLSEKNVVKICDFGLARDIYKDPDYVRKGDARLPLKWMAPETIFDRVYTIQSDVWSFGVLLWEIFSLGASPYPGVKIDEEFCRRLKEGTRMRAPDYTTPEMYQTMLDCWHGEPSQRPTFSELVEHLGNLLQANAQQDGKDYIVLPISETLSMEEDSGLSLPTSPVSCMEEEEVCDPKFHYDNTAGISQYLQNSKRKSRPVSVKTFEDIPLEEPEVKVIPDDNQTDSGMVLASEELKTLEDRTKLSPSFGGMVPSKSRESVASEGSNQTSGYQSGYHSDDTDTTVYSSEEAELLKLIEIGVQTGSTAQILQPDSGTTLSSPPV

pIC50 [1] | pIC50 [2] | pIC50 [3] | SMILES
8.46 | 9.11 | 8.17 | Cc1cc(C)nc(NS(=O)(=O)c2ccc(Nc3nncc4ccccc34)cc2)n1
7.92 | 8.01 | 6.85 | NS(=O)(=O)c1ccc(Nc2nncc3ccccc23)cc1
7.43 | 8.12 | 7.11 | NC(=S)NNc1nncc2ccccc12
7.38 | 8.57 | 7.38 | O=C1CS/C(=N/Nc2nncc3ccccc23)N1c1ccc(Cl)cc1
7.47 | 8.62 | 7.44 | COc1ccc(N2C(=O)CS/C2=N/Nc2nncc3ccccc23)cc1
8.82 | 9.37 | 8.39 | N#Cc1ccc(Nc2nncc3ccccc23)cc1
7.41 | 8.21 | 7.19 | S=C(NNc1nncc2ccccc12)Nc1ccccc1
7.89 | 8.01 | 6.89 | Cc1cc(NS(=O)(=O)c2ccc(Nc3nncc4ccccc34)cc2)no1
7.19 | 8.44 | 7.33 | CCN1C(=O)CS/C1=N/Nc1nncc2ccccc12
8.57 | 9.27 | 8.36 | CCOC(=O)c1ccc(Nc2nncc3ccccc23)cc1
7.82 | 8.07 | 7.06 | O=S(=O)(Nc1nccs1)c1ccc(Nc2nncc3ccccc23)cc1
8.35 | 9.06 | – | Fc1ccc(/C=C/C(=N/Nc2nncc3ccccc23)c2ccccc2)cc1
7.24 | 8.36 | 7.29 | O=C1CS/C(=N/Nc2nncc3ccccc23)N1
7.85 | 8.07 | 7.07 | O=S(=O)(Nc1ncccn1)c1ccc(Nc2nncc3ccccc23)cc1
7.32 | 8.14 | 7.12 | CCN=C(S)NNc1nncc2ccccc12
7.70 | 8.21 | 7.19 | S=C(NNc1nncc2ccccc12)Nc1ccc(Cl)cc1
8.47 | 9.15 | 8.19 | Cc1ccc(C(/C=C/c2ccc(F)cc2)=N\Nc2nncc3ccccc23)cc1
8.92 | 9.39 | 8.27 | COc1ccc(/C=C/C(=N/Nc2nncc3ccccc23)c2ccc(Cl)cc2)cc1
8.59 | 9.26 | 8.34 | Clc1ccc(/C=C/C(=N/Nc2nncc3ccccc23)c2ccccc2)cc1
8.85 | 9.38 | 8.25 | C(=C\c1ccccc1)/C(=N/Nc1nncc2ccccc12)c1ccccc1
7.31 | 8.35 | 7.28 | CCCCNC(=S)NNc1nncc2ccccc12
7.42 | 8.24 | 7.28 | COc1ccc(NC(=S)NNc2nncc3ccccc23)cc1
7.59 | 8.11 | 7.08 | O=S(=O)(Nc1ccccn1)c1ccc(Nc2nncc3ccccc23)cc1
7.25 | 8.46 | 7.35 | O=C1CS/C(=N/Nc2nncc3ccccc23)N1c1ccccc1
8.55 | 9.17 | 8.22 | Fc1ccc(Nc2nncc3ccccc23)cc1
8.48 | 9.16 | 8.20 | Clc1ccc(C(/C=C/c2ccccc2)=N\Nc2nncc3ccccc23)cc1
7.66 | 8.92 | 7.64 | CCCCN1C(=O)CS/C1=N/Nc1nncc2ccccc12
8.41 | 9.17 | 8.21 | O=C(O)c1ccc(Nc2nncc3ccccc23)cc1
– | 8.29 | 8.20 | Oc1cc(O)c2cc(O)c(-c3cc(O)c(O)c(O)c3)[o+]c2c1 [DELPHINIDIN CHLORIDE]
